Data published in patent US4117146A, “Method for treating depression and anxiety using phenyl hydrazo compounds” (The Dow Chemical Company, priority 1977, dated 1978).
Like-named read-outs stand apart in the source and are kept apart here.

Tests used:
[1] = tested on: reserpine-induced depression; experiment: protection from reserpine-induced depression (ptosis) in mice; type: in vivo; settings: for ED50: Mus musculus, 0.75 h; for antidepressant activity (in words): mean effective dose not calculated for the compounds of b45-b48
Experimental: Separate groups of mice of the same origin and past history (5 mice per group) were administered 2-(2-(2-chlorophenyl)hydrazino)-4,5-dihydro-1H-imidazole monohydrochloride in an aqueous carrier. Different groups were administered the compound by intraperitoneal injection at various dosage rates. Thirty minutes after the administration of the test compound, the mice were administered reserpine at a dosage rate of 2.5 milligrams per kilogram by intraperitoneal injection. Separate groups of similar mice were similarly administered 2.5 milligrams of reserpine per kilogram 30 minutes after administration of various dosages of the known antidepressant. The mice were then observed for 45 minutes for symptoms of reserpine-induced depression.
Protection from reserpine-induced depression is indicated by the absence of the characteristic ptosis.
The results were employed to calculate the dose effective to protect 50 percent of the mice (ED50) by classical, statistical procedures.
The procedure of Example 1 was repeated using oral administration of 2-(2-(2-chlorophenyl)hydrazino)-4,5-dihydro-1H-imidazole monohydrochloride instead of intraperitoneal injection.
Using the general procedure outlined above, the ED50 's were calculated for other compounds showing antidepressant properties. These compounds are represented by the general formula [drawing 2]

[2] = intraperitoneal acute 50 percent lethal dose; settings: mouse, in vivo, ip
[3] = Table I, oral, read-out: ORAL ED50
[4] = ip, Table I, intraperitoneal, read-out: Intraperitoneal ED50

Row | SMILES | ED50 [1, 3] | ED50 [1, 4] | antidepressant activity (in words) [1] | LD50 [2] | ED50 ([1]; oral administration, reserpine 2.5 mg/kg i.p., read-out: oral ED50) | ED50 ([1]; ip, intraperitoneal, 30 minutes before reserpine 2.5 mg/kg i.p., read-out: ED50 (dose effective to protect 50 percent of the mice))
1 | Fc1ccccc1NNC1=NCCN1.I [Example 3, 2-((2-fluorophenyl)hydrazino)-4,5-dihydro-1H-imidazole monohydriodide] | 1 mg/kg | < 10 mg/kg | particularly active as antidepressants |  |  | 
2 | CN1CCN=C1NNc1ccccc1F [Example 4] | 27 mg/kg | 37 mg/kg |  |  |  | 
3 | Fc1ccccc1NNC1=NCCCN1 [Example 5] | 43 mg/kg | 37 mg/kg |  |  |  | 
4 | Cl.Clc1ccccc1NNC1=NCCN1 [Example 1, 2-(2-(2-chlorophenyl)hydrazino)-4,5-dihydro-1H-imidazole monohydrochloride] |  |  | particularly active as antidepressants | 167 mg/kg | 2 mg/kg | < 10 mg/kg
5 | CN1CCN=C1NNc1ccc(Cl)cc1Cl [Example 6] |  | 43 mg/kg |  |  |  | 
